Data from the METLIN SMRT retention time set (Domingo-Almenara et al. 2019).

Test: gradient 5% acetonitrile 3 min, to 50% in 2 min, to 85% in 15 min, held 3 min, 100 µL/min
Details: column: Zorbax Extend-C18 2.1 x 50 mm; eluents: water / acetonitrile, 0.1% formic acid
Outline: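 Retention times of pure standards were taken from adduct peaks that were selected by computer and manually inspected. Over 3 months, mixtures of ~100 molecules were run by HPLC–quadrupole time-of-flight mass spectrometry in positive and negative ionization mode. The Zorbax Extend-C18 column (2.1 × 50 mm, 1.8 μm) ran at 100 μL/min in water and acetonitrile, each containing 0.1% formic acid, with 40 μL dead volume and 900 μL dwell volume.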

| Structure (SMILES) | RP-LC retention time [s] |
| --- | --- |
| Cc1cccc(NC(=O)CN2C(=O)CCCc3cc(S(=O)(=O)N4CCCC4)ccc32)c1C | 916 |
| NC(=O)C1CCN(C(=O)c2ccc(Cn3c(=O)c4cccn4c4cccnc43)cc2)CC1 | 655 |
| CCc1nnc(-c2ccc(S(=O)(=O)N3CCN(C4CCCCC4)CC3)o2)o1 | 637 |
| O=C(CN1C(=O)C2CCCCN2c2ccc(C(=O)N3CCCC3)cc21)NC1CCCC1 (stereo not drawn) | 732 |
| CCCn1cc(C2=CCN(S(=O)(=O)c3ccc(NC(C)=O)cc3)CC2)c2cccnc21 | 865 |
| CNC(=O)C1CCCN(c2nc3ncn(CC(=O)NC4CCCC4)c(=O)c3s2)C1 (stereo not drawn) | 605 |
| COc1cccc(N2CCN(S(=O)(=O)c3cn(C(C)C)c4ncccc34)CC2)c1 | 1060 |
| O=C(C1=CN(c2cccc(Cl)c2)c2ccccc2S1(=O)=O)N1CCOCC1 | 782 |
| CCN(CC)CCCNC(=O)c1c(-c2ccc(Br)s2)noc1C | 652 |
| CC(C)(C)c1noc(-c2ccc(=O)n(Cc3cccc(Cl)c3)n2)n1 | 1150 |
| Cc1ccc(NC(=O)N2C[C@@H](F)C[C@H]2C(=O)N2CCc3ccccc3C2)c(Cl)c1 | 831 |
| CC1CN(c2ccc(Cl)cc2)c2nc3c(c(=O)n(C)c(=O)n3C)n2C1 (stereo not drawn) | 885 |
| COC(=O)c1ccsc1NC(=O)CS(=O)(=O)Cc1ccccc1 | 823 |
| CC(=O)c1cccc(NC(=O)C2CC(=O)N(c3ccc4c(c3)CCN4C(C)=O)C2)c1 (stereo not drawn) | 668 |
| O=c1[nH]cc(S(=O)(=O)N2CCc3ccccc3C2)c(=O)[nH]1 | 663 |
| O=C(Cn1cc(-c2nnco2)c2ccccc21)NCc1ccccc1F | 755 |
| Cc1[nH]c(C(=O)N2CCC(CC(=O)NCc3cccnc3)CC2)c(C)c1C(=O)OC(C)C | 597 |
| COc1cccc(NC(=O)N2CCC(c3cc(N)on3)CC2)c1 | 653 |
| CCOCCCNC(=O)C1Cn2cccc2C(=O)N1 (stereo not drawn) | 592 |
| CCOC(=O)c1cnc2nc(C)ccc2c1Nc1cccc(F)c1 | 689 |
| CC12CC(c3ccccc3O1)C(C(=O)N1CCCCC1)C(=O)N2 (stereo not drawn) | 726 |
| CN1C(=O)C2(CCN(C(=O)Nc3ccc4c(c3)OCO4)C2)c2ccccc21 (stereo not drawn) | 752 |

| Structure (SMILES) | RP-LC retention time [s] |
| --- | --- |
| CC(C)CN1Cc2ccccc2-n2ccnc2C12CCN(C(=O)c1ccccc1F)CC2 | 650 |
| COC(=O)C1=CN(c2cc(OC)ccc2OC)c2cc(F)ccc2S1(=O)=O | 819 |
| CCOc1ccc(C(=O)N2CCC3(CC2)N=C(c2ccc(Cl)cc2)NO3)cc1 | 922 |
| O=C(Nc1nc(-c2nc3ccccc3s2)cs1)c1c(F)cccc1F | 920 |
| O=C(NCCc1ccccc1)N1CCCC(Cn2c(C3CC3)nc3cccnc32)C1 (stereo not drawn) | 682 |
| Cc1c(-c2noc(-c3ccccc3F)n2)nnn1Cc1ccc(F)cc1 | 1030 |
| Cc1cccc(CN2CC=C(C(=O)N3CCN(c4cccc(C)c4)CC3)CC2)c1 | 706 |
| CC(C)(C)NC(=O)N1CCC2(CC1)CN(c1ccccc1)C2=O | 788 |
| O=C(NCCc1csc(-c2cccs2)n1)C1CCN(C(=O)COc2ccccc2)CC1 | 783 |
| Cc1sc(NC(=O)c2ccccc2)c(C(=O)NCCN(C)C)c1C | 677 |
| O=C(Cn1nc(N2CCSCC2)c2ccccc2c1=O)Nc1cccc(C(F)(F)F)c1 | 1030 |
| O=C(CCSc1ccccc1)Nc1cccc2ccc(-n3ccnc3)nc12 | 648 |
| CCCc1noc(-c2ccnc(-n3cnc(C(=O)NC4CCCCCC4)c3)c2)n1 | 1060 |
| Cc1cccc(-c2nnc(-c3cc(S(=O)(=O)N4CCOCC4)ccc3F)o2)c1 | 961 |
| N#Cc1ccc(NC(=O)C2CCCN(S(=O)(=O)c3cc(-c4noc(C5CCC5)n4)cs3)C2)cc1 (stereo not drawn) | 1120 |
| Cc1ccc(-c2nc3ccccc3[nH]2)cc1NC(=O)c1ccco1 | 625 |
| Nc1nc(Cl)nc2c1ncn2[C@@H]1O[C@H](CO)[C@@H](O)[C@@H]1F | 600 |
| COCc1cn(CC2CCCN(Cc3cn(C(C)C)c4ccc(OC)cc34)C2)nn1 (stereo not drawn) | 648 |
| O=S(=O)(c1ccc(Br)cc1)N1CCC(c2noc(-c3ccccc3)n2)CC1 | 1180 |
| COc1ccc(CNC(=O)C2CCCN(c3nnc4ccc(Cl)cn34)C2)cc1 (stereo not drawn) | 657 |
| Nc1nc(N2CCOCC2)nc2ccccc12 | 572 |
| CN1Cc2ccccc2-n2ccnc2C12CCN(C(=O)c1cccc(C(F)(F)F)c1)CC2 | 594 |

| Structure (SMILES) | RP-LC retention time [s] |
| --- | --- |
| CC(C)NC(=O)c1ccc(OCC2CCN(C(=O)C(C)C)CC2)cc1 | 756 |
| C=CCN(CC=C)S(=O)(=O)c1ccc2nc(NC(=O)Cc3cccs3)sc2c1 | 936 |
| O=C(Nc1ccc2c(c1)OCO2)C1COCC(=O)N1Cc1ccccc1 (stereo not drawn) | 688 |
| CCCCC(=O)Nc1ccc2nc(N3CCN(CC)CC3)cc(C)c2c1 | 579 |
| COc1ccc(OCc2noc(CNS(=O)(=O)c3ccc(NC(C)=O)cc3)n2)cc1 | 710 |
| CCc1nn(C)c(=O)c2cc(S(=O)(=O)NCc3ccccc3Cl)cn12 | 893 |
| CCCNc1nc(-c2cccc(Br)c2)cs1 | 1030 |
| COCc1cc(=O)n(CCc2ccccc2)c(N2CCCC2)n1 | 816 |
| CCOc1ccc(N2C=C(C(=O)N3CCCC3)S(=O)(=O)c3ccc(F)cc32)cc1 | 872 |
| CC(C)C(=O)Nc1ccc2c(c1)nc(CN1CCCC1)n2C(C)C | 602 |
| Cc1noc(C2CN(C(=O)Nc3ccc4c(c3)CCC4)CC23CCOCC3)n1 (stereo not drawn) | 777 |
| CN1C(=O)COc2ccc(-c3csc(NC(=O)C4CCCO4)n3)cc21 (stereo not drawn) | 762 |
| C=CCNC(=O)c1c(O)c2cccnc2n(-c2ccc(OC)cc2)c1=O | 1020 |
| O=C(CN1C(=O)CCC1=O)Nc1ccc2c(c1)CN(C(=O)c1cccs1)CC2 | 630 |
| O=C(c1cccs1)N1CCC(Cn2c(C(F)(F)F)nc3ccccc32)CC1 | 819 |
| Cc1ccc(C)c(CNC(=O)c2cccn2Cc2noc(C)n2)c1 | 893 |
| O=C(NC1CCCCCCC1)C1CC(=O)N(CCc2c[nH]c3ccc(F)cc23)C1 (stereo not drawn) | 859 |
| Cc1ccc(-c2nc3nc(C)cc(N(CCO)Cc4ccccc4)n3n2)cc1 | 815 |
| Cc1sc(-c2nc(-c3ccc(F)cc3)no2)cc1S(=O)(=O)N1CCN(c2ncccn2)CC1 | 1240 |
| CCN1C(=O)COc2ccc(-c3nc(NC(=O)CCc4ccccc4)sc3C)cc21 | 1040 |
| O=C(CN1C(=O)COc2ccc(C(=O)N3CCCC3)cc21)Nc1ccccc1F | 694 |
| O=C(N1CCC(c2nnc(-c3ccc(F)cc3)o2)CC1)C1(c2ccccc2)CCOCC1 | 631 |

| Structure (SMILES) | RP-LC retention time [s] |
| --- | --- |
| O=C(COc1ccc(Cl)cc1)Nc1nc(-c2cccc3ccccc23)cs1 | 1220 |
| COc1c(C(=O)N2CCN(C3CCCCC3)CC2)sc2ccc(F)cc12 | 685 |
| CC(C)CNC(=O)C1CCN(c2nc3ccc(-c4cncnc4)nc3s2)CC1 | 663 |
| Cc1ccc(CNC(=O)CNS(=O)(=O)c2cc(-c3noc(C)n3)sc2C)cc1 | 847 |
| Cn1nc(-c2ccccc2F)c2cc(C(=O)N3CCN(c4ccccn4)CC3)sc21 | 654 |
| COc1ccc(NC(=O)N2CCN(C3=CC4=NC(C)CN4C=N3)CC2)c(C)c1 (stereo not drawn) | 649 |
| CC(C)(C)C(=O)Nc1ccc2nc(N3CCN(CC(=O)N4CCCCCC4)CC3)cc(C(=O)O)c2c1 | 603 |
| O=C(NCCNS(=O)(=O)CCOc1ccc(F)cc1)c1ccc(NC(=O)C2CC2)cc1 | 710 |
| CCCNC(=O)C1CCCN(c2ccc(SCC(=O)Nc3cccc(F)c3)nn2)C1 (stereo not drawn) | 670 |
| O=C(Nc1ccc(N2CCOCC2)cc1)C1=Cc2cc(Cl)ccc2OC=C1 | 992 |
| O=C(Cc1ccccc1Cl)Nc1nnc(-c2ccc(OC(F)(F)F)cc2)o1 | 896 |
| O=C(Nc1nnc(SCc2cccc(Cl)c2)s1)c1ccccc1C(F)(F)F | 1010 |
| O=C(NC1CCN(c2cc(-c3ccc(Cl)cc3)[nH]n2)C1)c1ccccc1F (stereo not drawn) | 777 |
| Cc1cccc(NC(=O)CN2C(=O)CCCc3cc(S(=O)(=O)N4CCC(C)CC4)ccc32)c1 | 1010 |
| CCc1ccccc1NC(=O)c1ncn2c1C(=O)N(C1CC1)C(C)(C(=O)NC1CCCC1)C2 (stereo not drawn) | 828 |
| COc1ccccc1NC(=O)N1CCCC(C)(C(=O)NCc2ccc(C)cc2)C1 (stereo not drawn) | 898 |
| CC(C)(C)C(=O)N1CCCC(c2nc(CCNC(=O)C3CC3)cs2)C1 (stereo not drawn) | 710 |
| CC(C)Oc1ccc(-c2noc(Cn3c(=O)n(C(C)C)c(=O)c4ccccc43)n2)cc1 | 1140 |
| Cc1cccc(N2C(=O)CN(CCC(C)C)[C@H]3CS(=O)(=O)C[C@H]32)c1 | 811 |
| O=C(CN1C(=O)C(C(=O)N2CCCC2)Sc2ccccc21)NCc1ccccc1 (stereo not drawn) | 870 |
| COc1ccccc1N1CCN(c2ncc(S(=O)(=O)c3ccccc3)c(N)n2)CC1 | 903 |
| Cc1c2cnn(CC(=O)NCc3ccco3)c(=O)c2c(C)n1Cc1cccc(Cl)c1 | 862 |
